Patent publication US6638973B2, “Taxane formulations” (FSU Research Foundation, Inc., priority 2000, dated 2003)
Like-named read-outs stand apart in the source and are kept apart here.

Test system: HCT116 cells
Experiment: In vitro cytotoxicity measured by the cell colony formation assay
Format: cell-based
Conditions: colonies counted after 7 days, read-out: IN VITRO ID 50 (nm) HCT116
In short: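 Colony-forming survival was scored 7 days after a 72 h, 37 °C compound exposure followed by washout into fresh medium.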

[1] = HCT116 colony formation, 72 h drug incubation, Example 15, C-7 substituted acetate/C-10 hydroxy taxanes
[2] = HCT116 cells, 72 h incubation with drug, ID50 = drug concentration producing 50% inhibition of colony formation
[3] = HCT116 colony formation, 72 h drug incubation, Example 10, C-10 ester/C-7 hydroxy taxanes
[4] = HCT116 colony formation, 72 h drug incubation, Example 5, C-7 ester/C-10 hydroxy taxanes
[5] = HCT116 cells, colony formation, 72 h incubation with drug, ID50 = drug concentration producing 50% inhibition of colony formation
[6] = HCT116 cells, 72 h drug incubation, ID50 = drug concentration producing 50% inhibition of colony formation

SMILES | IC50 [2] [nM] | IC50 [3] [nM] | other results
CSCC(=O)O[C@H]1C[C@H]2OC[C@@]2(OC(C)=O)C2[C@H](OC(=O)c3ccccc3)[C@]3(O)C[C@H](OC(=O)[C@H](O)[C@@H](NC(=O)OC(C)(C)C)c4ccco4)C(C)=C([C@@H](O)C(=O)[C@@]21C)C3(C)C (some centres unmarked) [Compound 5600] |  |  | IC50 [1]: < 1 nM
COC(=O)O[C@H]1C(=O)[C@@]2(C)C([C@H](OC(=O)c3ccccc3)[C@]3(O)C[C@H](OC(=O)[C@H](O)[C@H](C=C(C)C)NC(=O)OC(C)(C)C)C(C)=C1C3(C)C)[C@]1(OC(C)=O)CO[C@@H]1C[C@@H]2O (some centres unmarked) [Compound 1999] | < 1 |  | 
CCCC(=O)O[C@H]1C(=O)[C@@]2(C)C([C@H](OC(=O)c3ccccc3)[C@]3(O)C[C@H](OC(=O)[C@H](O)[C@@H](NC(=O)c4ccco4)c4ccco4)C(C)=C1C3(C)C)[C@]1(OC(C)=O)CO[C@@H]1C[C@@H]2O (some centres unmarked) [Compound 3686] |  | < 1 | 
C/C=C/C(=O)N[C@@H](c1ccco1)[C@@H](O)C(=O)O[C@H]1C[C@@]2(O)[C@@H](OC(=O)c3ccccc3)C3[C@](C)(C(=O)[C@H](O)C(=C1C)C2(C)C)[C@@H](OC(=O)COC)C[C@H]1OC[C@@]31OC(C)=O (some centres unmarked) [Compound 5835] |  |  | IC50 [1]: < 1 nM
CCC(=O)O[C@H]1C(=O)[C@@]2(C)C([C@H](OC(=O)c3ccccc3)[C@]3(O)C[C@H](OC(=O)[C@H](O)[C@@H](NC(=O)OC(C)(C)C)c4cccs4)C(C)=C1C3(C)C)[C@]1(OC(C)=O)CO[C@@H]1C[C@@H]2O (some centres unmarked) [Compound 0550] |  | < 10 | 
CCOC(=O)O[C@H]1C[C@H]2OC[C@@]2(OC(C)=O)C2[C@H](OC(=O)c3ccccc3)[C@]3(O)C[C@H](OC(=O)[C@H](O)[C@@H](NC(=O)c4ccccc4)c4cccs4)C(C)=C([C@@H](O)C(=O)[C@@]21C)C3(C)C (some centres unmarked) [Compound 4188] | < 10 |  | 
C/C=C/C(=O)O[C@H]1C(=O)[C@@]2(C)C([C@H](OC(=O)c3ccccc3)[C@]3(O)C[C@H](OC(=O)[C@H](O)[C@@H](NC(=O)OC(C)(C)C)c4ccc([N+](=O)[O-])cc4)C(C)=C1C3(C)C)[C@]1(OC(C)=O)CO[C@@H]1C[C@@H]2O (some centres unmarked) [Compound 2439] |  | < 10 | 
COC(=O)O[C@H]1C[C@H]2OC[C@@]2(OC(C)=O)C2[C@H](OC(=O)c3ccccc3)[C@]3(O)C[C@H](OC(=O)[C@H](O)[C@@H](NC(=O)c4ccccc4)c4cccs4)C(C)=C([C@@H](O)C(=O)[C@@]21C)C3(C)C (some centres unmarked) [Compound 4411] | < 1 |  | 
CCOC(=O)O[C@H]1C(=O)[C@@]2(C)C([C@H](OC(=O)c3ccccc3)[C@]3(O)C[C@H](OC(=O)[C@H](O)[C@@H](NC(=O)OC(C)C)c4ccco4)C(C)=C1C3(C)C)[C@]1(OC(C)=O)CO[C@@H]1C[C@@H]2O (some centres unmarked) [Compound 3963] | < 1 |  | 
CCC(=O)O[C@H]1C(=O)[C@@]2(C)C([C@H](OC(=O)c3ccccc3)[C@]3(O)C[C@H](OC(=O)[C@H](O)[C@@H](NC(=O)c4ccccc4)c4ccsc4)C(C)=C1C3(C)C)[C@]1(OC(C)=O)CO[C@@H]1C[C@@H]2O (some centres unmarked) [Compound 0691] |  | < 1 | 
CCCC(=O)N[C@@H](c1ccco1)[C@@H](O)C(=O)O[C@H]1C[C@@]2(O)[C@@H](OC(=O)c3ccccc3)C3[C@](C)(C(=O)[C@H](O)C(=C1C)C2(C)C)[C@@H](OC(=O)CC)C[C@H]1OC[C@@]31OC(C)=O (some centres unmarked) [Compound 3171] |  |  | IC50 [4]: < 1 nM
CCC(=O)O[C@H]1C(=O)[C@@]2(C)C([C@H](OC(=O)c3ccccc3)[C@]3(O)C[C@H](OC(=O)[C@H](O)[C@@H](NC(=O)c4ccccc4)c4ccco4)C(C)=C1C3(C)C)[C@]1(OC(C)=O)CO[C@@H]1C[C@@H]2O (some centres unmarked) [Compound 0663] |  | < 1 | 
COC(=O)O[C@H]1C[C@H]2OC[C@@]2(OC(C)=O)C2[C@H](OC(=O)c3ccccc3)[C@]3(O)C[C@H](OC(=O)[C@H](O)[C@@H](NC(=O)OCC(C)C)c4ccco4)C(C)=C([C@@H](O)C(=O)[C@@]21C)C3(C)C (some centres unmarked) [Compound 4656] | < 1 |  | 
CCC(=O)O[C@H]1C[C@H]2OC[C@@]2(OC(C)=O)C2[C@H](OC(=O)c3ccccc3)[C@]3(O)C[C@H](OC(=O)[C@H](O)[C@H](C=C(C)C)NC(=O)OC(C)(C)C)C(C)=C([C@@H](O)C(=O)[C@@]21C)C3(C)C (some centres unmarked) [Compound 1351] |  |  | IC50 [4]: < 1 nM
CC(=O)O[C@@]12CO[C@@H]1C[C@H](O)[C@@]1(C)C(=O)[C@H](OC(=O)C3CC3)C3=C(C)[C@@H](OC(=O)[C@H](O)[C@@H](NC(=O)OC(C)(C)C)c4ccccn4)C[C@@](O)([C@@H](OC(=O)c4ccccc4)C12)C3(C)C (some centres unmarked) [Compound 2802] |  | < 1 | 
CCC(C)(C)OC(=O)NC(c1ccco1)C(O)C(=O)OC1CC2(O)C(OC(=O)c3ccccc3)C3C4(OC(C)=O)COC4CC(OC(=O)COC)C3(C)C(=O)C(O)C(=C1C)C2(C)C (centres unmarked) [Compound 6226, N-Debenzoyl-N-tert-amyloxycarbonyl-3′-desphenyl-3′-(2-furyl)-10-deacetyl-7-methoxyacetyl taxol] |  |  | IC50 [1]: < 1 nM

SMILES | IC50 [2] [nM] | IC50 [3] [nM] | other results
CCOC(=O)O[C@H]1C(=O)[C@@]2(C)C([C@H](OC(=O)c3ccccc3)[C@]3(O)C[C@H](OC(=O)[C@H](O)[C@@H](NC(=O)OCC(C)C)c4ccco4)C(C)=C1C3(C)C)[C@]1(OC(C)=O)CO[C@@H]1C[C@@H]2O (some centres unmarked) [Compound 3181] | < 1 |  | 
CCOC(=O)O[C@H]1C(=O)[C@@]2(C)C([C@H](OC(=O)c3ccccc3)[C@]3(O)C[C@H](OC(=O)[C@H](O)[C@@H](NC(=O)OCC(C)C)C4CC4)C(C)=C1C3(C)C)[C@]1(OC(C)=O)CO[C@@H]1C[C@@H]2O (some centres unmarked) [Compound 4844] | < 1 |  | 
C/C=C/C(=O)N[C@@H](c1ccco1)[C@@H](O)C(=O)O[C@H]1C[C@@]2(O)[C@@H](OC(=O)c3ccccc3)C3[C@](C)(C(=O)[C@H](OC(=O)Nc4ccccc4)C(=C1C)C2(C)C)[C@@H](O)C[C@H]1OC[C@@]31OC(C)=O (some centres unmarked) [Compound 6024] |  |  | IC50 [5]: < 1 nM
CCC(=O)O[C@H]1C(=O)[C@@]2(C)C([C@H](OC(=O)c3ccccc3)[C@]3(O)C[C@H](OC(=O)[C@H](O)[C@@H](NC(=O)c4ccccc4)C4CCC4)C(C)=C1C3(C)C)[C@]1(OC(C)=O)CO[C@@H]1C[C@@H]2O (some centres unmarked) [Compound 0720] |  | < 10 | 
C/C=C/C(=O)N[C@@H](c1cccs1)[C@@H](O)C(=O)O[C@H]1C[C@@]2(O)[C@@H](OC(=O)c3ccccc3)C3[C@](C)(C(=O)[C@H](OC(=O)OCC)C(=C1C)C2(C)C)[C@@H](O)C[C@H]1OC[C@@]31OC(C)=O (some centres unmarked) [Compound 3243] | < 1 |  | 
CCCC(=O)O[C@H]1C(=O)[C@@]2(C)C([C@H](OC(=O)c3ccccc3)[C@]3(O)C[C@H](OC(=O)[C@H](O)[C@@H](NC(=O)c4cccs4)c4cccs4)C(C)=C1C3(C)C)[C@]1(OC(C)=O)CO[C@@H]1C[C@@H]2O (some centres unmarked) [Compound 3408] |  | < 1 | 
COC(=O)O[C@H]1C[C@H]2OC[C@@]2(OC(C)=O)C2[C@H](OC(=O)c3ccccc3)[C@]3(O)C[C@H](OC(=O)[C@H](O)[C@@H](NC(=O)OC(C)(C)C)c4ccco4)C(C)=C([C@@H](O)C(=O)[C@@]21C)C3(C)C (some centres unmarked) [Compound 4533] | < 1 |  | 
CC(=O)O[C@@]12CO[C@@H]1C[C@H](OC(=O)Nc1ccc(F)c(F)c1)[C@@]1(C)C(=O)[C@H](O)C3=C(C)[C@@H](OC(=O)[C@H](O)[C@@H](NC(=O)C=C(C)C)c4ccco4)C[C@@](O)([C@@H](OC(=O)c4ccccc4)C12)C3(C)C (some centres unmarked) [Compound 5522] |  |  | IC50 [6]: < 1 nM
CCOC(=O)O[C@H]1C[C@H]2OC[C@@]2(OC(C)=O)C2[C@H](OC(=O)c3ccccc3)[C@]3(O)C[C@H](OC(=O)[C@H](O)[C@@H](NC(=O)C=C(C)C)c4cccs4)C(C)=C([C@@H](O)C(=O)[C@@]21C)C3(C)C (some centres unmarked) [Compound 4164] | < 1 |  | 
CCNC(=O)O[C@H]1C(=O)[C@@]2(C)C([C@H](OC(=O)c3ccccc3)[C@]3(O)C[C@H](OC(=O)[C@H](O)[C@@H](NC(=O)OC(C)(C)C)c4ccoc4)C(C)=C1C3(C)C)[C@]1(OC(C)=O)CO[C@@H]1C[C@@H]2O (some centres unmarked) [Compound 2717] |  |  | IC50 [5]: < 1 nM
CCC(=O)O[C@H]1C(=O)[C@@]2(C)C([C@H](OC(=O)c3ccccc3)[C@]3(O)C[C@H](OC(=O)[C@H](O)[C@@H](NC(=O)c4ccccc4)C4CC4)C(C)=C1C3(C)C)[C@]1(OC(C)=O)CO[C@@H]1C[C@@H]2O (some centres unmarked) [Compound 0706] |  | < 1 | 
CCOC(=O)O[C@H]1C(=O)[C@@]2(C)C([C@H](OC(=O)c3ccccc3)[C@]3(O)C[C@H](OC(=O)[C@H](O)[C@@H](NC(=O)OC(C)(C)C)c4cccnc4)C(C)=C1C3(C)C)[C@]1(OC(C)=O)CO[C@@H]1C[C@@H]2O (some centres unmarked) [Compound 1808] | < 10 |  | 
C/C=C/C(=O)N[C@@H](c1ccco1)[C@@H](O)C(=O)O[C@H]1C[C@@]2(O)[C@@H](OC(=O)c3ccccc3)C3[C@](C)(C(=O)[C@H](O)C(=C1C)C2(C)C)[C@@H](OC(=O)Nc1ccccc1)C[C@H]1OC[C@@]31OC(C)=O (some centres unmarked) [Compound 5757] |  |  | IC50 [6]: < 10 nM
CCOC(=O)O[C@H]1C[C@H]2OC[C@@]2(OC(C)=O)C2[C@H](OC(=O)c3ccccc3)[C@]3(O)C[C@H](OC(=O)[C@H](O)[C@@H](NC(=O)c4ccco4)c4cccs4)C(C)=C([C@@H](O)C(=O)[C@@]21C)C3(C)C (some centres unmarked) [Compound 4304] | < 10 |  | 
CC(=O)O[C@@]12CO[C@@H]1C[C@H](O)[C@@]1(C)C(=O)[C@H](OC(=O)C(C)C)C3=C(C)[C@@H](OC(=O)[C@H](O)[C@@H](NC(=O)OC(C)(C)C)C4CCC4)C[C@@](O)([C@@H](OC(=O)c4ccccc4)C12)C3(C)C (some centres unmarked) [Compound 2319] |  | < 10 | 
CC(=O)O[C@@]12CO[C@@H]1C[C@H](O)[C@@]1(C)C(=O)[C@H](OC(=O)C3CC3)C3=C(C)[C@@H](OC(=O)[C@H](O)[C@@H](NC(=O)c4cccs4)c4ccco4)C[C@@](O)([C@@H](OC(=O)c4ccccc4)C12)C3(C)C (some centres unmarked) [Compound 3663] |  | < 1 | 
